Data taken from ChEMBL document CHEMBL1201862, “PubChem BioAssay data set” (2004).
Calls of active or inactive are those of the source.

How the values were obtained:
Streptokinase A = target: T1, Streptokinase A (Streptococcus pyogenes serotype M1, UniProt P10520); assay: viability-normalized secreted streptokinase activity reduction – plasminogen activation absorbance, OD405, dose response (AID 1914); type: functional, Streptococcus pyogenes M1 GAS;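 also: secreted streptokinase activity via plasminogen activation per viability signal from cell pellet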
T1 sequence (P10520 whole entry): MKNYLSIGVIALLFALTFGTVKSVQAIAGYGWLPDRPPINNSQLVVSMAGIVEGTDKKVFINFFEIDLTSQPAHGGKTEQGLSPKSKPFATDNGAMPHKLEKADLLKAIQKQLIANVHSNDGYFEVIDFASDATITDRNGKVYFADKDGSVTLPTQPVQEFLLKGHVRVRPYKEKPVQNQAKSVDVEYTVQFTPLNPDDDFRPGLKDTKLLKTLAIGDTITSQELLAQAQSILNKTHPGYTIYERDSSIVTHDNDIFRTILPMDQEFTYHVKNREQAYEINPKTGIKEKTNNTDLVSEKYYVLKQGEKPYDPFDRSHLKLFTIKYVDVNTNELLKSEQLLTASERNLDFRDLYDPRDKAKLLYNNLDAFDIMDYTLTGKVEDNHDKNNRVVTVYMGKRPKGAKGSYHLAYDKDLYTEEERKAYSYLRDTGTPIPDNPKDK

[1] = test system: Streptococcus sp. 'group A'; assay: Streptococcus pyogenes SK(-)GAS viability under kanamycin – luminescence, BacTiterGlo, confirmation, counter-screen for streptokinase expression inhibitor project, dose response (AID 1900); type: functional, organism-based
Cryptococcus neoformans [2] = assay: Cryptococcus growth inhibition by alamar blue – cell lysis, cherry-picks, replicate tests, mechanism study for C. neoformans antifungal project, dose response (AID 686999); type: functional, organism-based
Cryptococcus neoformans [3] = assay: PubChem AID 686997; type: functional, organism-based
Streptococcus = assay: GAS UMAA2166 growth inhibition – luminescence, BacTiterGlo, counter-screen for streptokinase expression inhibitor project, dose response (AID 1915); type: functional, organism-based;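 also: potency for reduction of bacterial viability or growth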
[4] = viability loss in HEK293T cells – cell-based, ATP luminescence, dry powder, set 3, cytotoxicity control, dose response (AID 743131); type: functional; conditions: HEK293
HeLa = assay: viability loss in HeLa cells – cell-based, ATP luminescence, cherry-pick samples, cytotoxicity control, dose response (AID 687004); type: functional; conditions: Homo sapiens
[5] = IC50 of insulin release inhibition, rat insulinoma INS-1E line, 5 mM glucose, cell-based (AID 1117331); type: functional
[6] = Potency on glucagon-like peptide 1 release, dose-response in NCI-H716 cell line, half maximal inhibitory concentration (AID 1117344); type: functional, cell-based
[7] = glucagon-like peptide-1 release potency in STC-1, concentration-response, half-maximal inhibitory concentration in the STC-1 line (AID 1117345); type: functional, cell-based
[8] = target: T2, Zinc finger protein mex-5 (Caenorhabditis elegans, UniProt Q9XUB2); assay: potency of MEX-5 RNA-binding blockers – biochemical, C. elegans, fluorescence polarization, dose response (AID 1960)
T2 sequence (Q9XUB2 whole entry): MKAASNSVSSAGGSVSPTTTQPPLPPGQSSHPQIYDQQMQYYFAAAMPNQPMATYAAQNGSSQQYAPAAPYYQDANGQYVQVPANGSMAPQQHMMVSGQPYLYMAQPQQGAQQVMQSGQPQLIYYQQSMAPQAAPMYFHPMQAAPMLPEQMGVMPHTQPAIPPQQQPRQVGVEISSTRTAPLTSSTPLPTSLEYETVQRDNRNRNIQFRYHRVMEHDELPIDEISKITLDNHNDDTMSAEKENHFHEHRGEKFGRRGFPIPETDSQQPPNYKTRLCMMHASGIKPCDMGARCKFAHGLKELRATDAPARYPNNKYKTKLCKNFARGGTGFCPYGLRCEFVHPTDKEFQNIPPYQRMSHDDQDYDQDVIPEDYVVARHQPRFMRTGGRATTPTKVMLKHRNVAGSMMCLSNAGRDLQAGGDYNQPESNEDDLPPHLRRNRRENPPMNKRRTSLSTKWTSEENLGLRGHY

[9] = target: T3, RNA-binding protein pos-1 (Caenorhabditis elegans, UniProt G5EF15); assay: disruptors of C. elegans POS-1 RNA interaction – biochemical, fluorescence polarization, dose response (AID 1964);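 also: purified POS-1 fused to maltose binding protein made in E. coli; potency of compounds blocking POS-1 binding to fluorescent RNA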
T3 sequence (G5EF15 whole entry): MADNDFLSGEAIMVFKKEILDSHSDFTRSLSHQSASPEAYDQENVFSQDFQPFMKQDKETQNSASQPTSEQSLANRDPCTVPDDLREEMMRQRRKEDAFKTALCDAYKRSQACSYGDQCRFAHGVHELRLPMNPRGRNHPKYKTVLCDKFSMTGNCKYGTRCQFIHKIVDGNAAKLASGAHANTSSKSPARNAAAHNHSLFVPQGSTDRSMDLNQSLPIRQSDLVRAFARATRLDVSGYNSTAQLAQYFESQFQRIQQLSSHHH

[10] = target: Induced myeloid leukemia cell differentiation protein Mcl-1 (Homo sapiens, UniProt Q07820); type: functional
[11] = target: Bifunctional protein GlmU (Mycobacterium tuberculosis, UniProt P9WMN3); assay: Inhibitors of Mycobacterial Glucosamine-1-phosphate acetyl transferase (GlmU). Secondary screen.; parameters: species or system Mycobacterium tuberculosis H37Rv
[12] = target: T4, Tyrosine-protein phosphatase non-receptor type 7 (Homo sapiens, UniProt P35236); assay: HePTP tyrosine phosphatase activity blockers – biochemical, absorbance, leukemia target, primary screen (AID 521); type: functional
T4 sequence (P35236 whole entry): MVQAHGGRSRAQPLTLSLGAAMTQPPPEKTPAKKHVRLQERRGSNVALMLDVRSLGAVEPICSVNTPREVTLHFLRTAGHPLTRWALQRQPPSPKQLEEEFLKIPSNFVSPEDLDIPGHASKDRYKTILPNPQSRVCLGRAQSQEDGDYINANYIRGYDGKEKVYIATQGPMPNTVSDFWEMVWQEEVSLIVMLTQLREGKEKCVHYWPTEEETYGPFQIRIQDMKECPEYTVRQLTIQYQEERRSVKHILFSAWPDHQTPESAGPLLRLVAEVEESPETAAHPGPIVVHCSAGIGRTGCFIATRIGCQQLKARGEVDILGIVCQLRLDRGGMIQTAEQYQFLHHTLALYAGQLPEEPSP

ELAV-like protein 1 = ELAV-like protein 1 (Homo sapiens, UniProt Q15717); assay: Identify HuR specific inhibitors.; type: functional
ELAV-like protein 1, sequence (Q15717 whole entry): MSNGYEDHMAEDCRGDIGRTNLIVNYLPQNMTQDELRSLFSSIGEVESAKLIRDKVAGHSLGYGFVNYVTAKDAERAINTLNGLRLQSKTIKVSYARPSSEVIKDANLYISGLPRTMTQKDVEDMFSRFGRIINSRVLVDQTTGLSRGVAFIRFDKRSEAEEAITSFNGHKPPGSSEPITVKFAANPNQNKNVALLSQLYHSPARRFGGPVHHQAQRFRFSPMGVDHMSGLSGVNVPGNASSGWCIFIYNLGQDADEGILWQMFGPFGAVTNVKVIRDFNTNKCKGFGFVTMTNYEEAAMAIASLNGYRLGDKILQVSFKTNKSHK

Induced myeloid leukemia cell differentiation protein Mcl-1, sequence (Q07820 whole entry): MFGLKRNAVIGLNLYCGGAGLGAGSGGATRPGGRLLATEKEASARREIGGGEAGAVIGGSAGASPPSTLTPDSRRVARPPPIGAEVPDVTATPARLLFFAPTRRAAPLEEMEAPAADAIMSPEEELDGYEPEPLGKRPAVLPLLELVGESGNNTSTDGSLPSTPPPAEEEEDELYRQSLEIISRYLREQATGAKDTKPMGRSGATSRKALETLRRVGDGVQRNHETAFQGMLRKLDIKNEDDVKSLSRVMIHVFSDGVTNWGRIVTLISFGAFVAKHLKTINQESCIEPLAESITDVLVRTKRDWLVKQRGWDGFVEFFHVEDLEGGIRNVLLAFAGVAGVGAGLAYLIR
Bifunctional protein GlmU, sequence (P9WMN3 whole entry): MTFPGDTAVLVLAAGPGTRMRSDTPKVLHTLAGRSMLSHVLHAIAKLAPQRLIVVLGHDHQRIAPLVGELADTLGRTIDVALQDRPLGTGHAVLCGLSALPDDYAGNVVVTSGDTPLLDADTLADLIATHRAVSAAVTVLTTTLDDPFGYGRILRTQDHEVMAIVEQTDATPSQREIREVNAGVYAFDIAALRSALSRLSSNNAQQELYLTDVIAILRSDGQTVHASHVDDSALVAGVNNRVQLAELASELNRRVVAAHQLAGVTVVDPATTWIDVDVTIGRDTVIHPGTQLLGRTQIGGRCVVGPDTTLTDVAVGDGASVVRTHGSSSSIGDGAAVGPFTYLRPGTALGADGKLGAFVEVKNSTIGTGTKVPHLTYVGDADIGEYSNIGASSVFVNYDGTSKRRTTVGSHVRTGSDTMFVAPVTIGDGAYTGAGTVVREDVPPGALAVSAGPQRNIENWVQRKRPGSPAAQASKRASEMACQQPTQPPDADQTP

In the case of `Cc1ccc(OCCn2c(S)nc3ccccc32)c(C(C)C)c1`, the EC50 (Streptokinase A) is reported as 15.2 µM (active), the EC50 [1] is reported as 2.73 µM (active) and the AC50 (Cryptococcus neoformans [2]) is reported as 11.2 µM (active). For the same molecule, the AC50 (Cryptococcus neoformans [3]) was 20.7 µM (active), the EC50 (Streptococcus) was 17.2 µM (active) and the AC50 [4] was 10.3 µM (active). The AC50 (HeLa) was 37.9 µM (active).
For `COc1ccc(/C=N/NC(=O)c2ccncc2)cc1OC` [VERAZIDE], the IC50 [5] was > 33.3 µM (inactive), the IC50 [6] was 20 µM (inactive) and the IC50 [7] was > 40 µM (inactive).
With `O=C1NC(=S)/C(=C\c2ccc(-c3ccccc3Cl)o2)S1` the EC50 (Streptokinase A) was 14.7 µM (active), the EC50 [1] was 3.42 µM (active) and the EC50 (Streptococcus) was 28.2 µM (active). The EC50 [8] was > 300 µM (not active), the EC50 [9] was > 300 µM (not active) and the IC50 [10] was 3.31 µM (active). For the same molecule, the IC50 [11] was 194 µM (active).
With `c1cc2c(cc1Cn1cnnn1)OCO2` the IC50 [12] was > 100 µM (not active).
With `O=C(O)C1=NN(c2cc(Cl)c(S(=O)(=O)O)cc2Cl)C(=O)C1` the IC50 (ELAV-like protein 1) was 16.7 µM (inactive).
